Laboratory results taken from patent US6063791A, “N-benzenesulfonyl-L-proline derivatives, method for preparing and therapeutic use” (Fournier Industrie et Sante, priority 1996, dated 2000).
Where a name gives a salt, the structure may show the parent alone.

These molecules were tested against T1, guinea-pig B2 receptor (Cavia porcellus, UniProt O70526) (assay: Inhibition of [3H]-bradykinin binding to guinea-pig ileum membranes). Conditions: test compound at 10^-6 M, [3H]-bradykinin 120 pM, 90 min at 20° C., read-out: Activity (percentage inhibition of the binding of [3H]-bradykinin).
T1 construct: Ileum segments are isolated from male guinea-pigs; tissue Iffa Credo, l'Arbresle, France (animals); host or cells: ileum membranes of male Dunkin-Hartley guinea-pigs
T1 sequence (O70526 1-372): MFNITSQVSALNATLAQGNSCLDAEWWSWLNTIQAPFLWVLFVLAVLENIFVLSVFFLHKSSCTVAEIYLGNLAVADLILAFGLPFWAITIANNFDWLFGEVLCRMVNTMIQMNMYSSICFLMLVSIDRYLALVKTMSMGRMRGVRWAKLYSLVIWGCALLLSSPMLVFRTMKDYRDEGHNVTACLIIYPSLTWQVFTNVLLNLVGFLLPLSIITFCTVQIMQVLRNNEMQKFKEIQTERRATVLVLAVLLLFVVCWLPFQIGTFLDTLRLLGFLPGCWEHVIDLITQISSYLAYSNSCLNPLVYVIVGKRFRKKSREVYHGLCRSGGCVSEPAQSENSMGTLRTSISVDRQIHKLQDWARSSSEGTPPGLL
Method: The following pharmacological test is used: Ileum segments are isolated from male guinea-pigs [of the Dunkin-Hartley strain (Iffa Credo, l'Arbresle, France)] and ground in the following TES buffer: TES 25 mM, 1,10-phenanthroline 1 mM (pH 6.8), bacitracin 140 μg/ml, BSA 1 g/l. The membranes are then isolated by centrifugation (18,000 rpm; 20 min; 4° C.). The binding studies are carried out in this TES buffer using [^3 H]-bradykinin (120 pM) and 50 μg of membrane protein per test (final volume 500 μl) with an equilibrium time of 90 min at 20° C. The percentage inhibition of the binding of [^3 H]-bradykinin is then determined in the presence of one of the test compounds according to the invention at a concentration of 10^-6 M.
The results obtained from these tests (shown as "activity") are collated in Table I below with reference to the Examples given in the description. In this Table, Pos indicates the position of the amidine group on the aromatic (or heteroaromatic) ring relative to the group B; in the "Salt" column, Ch1 denotes that the compound is in the form of the hydrochloric acid salt and Ms denotes that it is in the form of the methanesulfonic acid salt.
For Cc1cc(C)c2cccc(OCc3c(Cl)ccc(S(=O)(=O)N4CCC[C@H]4C(=O)NCCNC(=O)c4ccc(C(=N)N)cc4)c3Cl)c2n1 [Example 2, 1-[[3-[(2,4-Dimethylquinolin-8-yl)oxymethyl]-2,4-dichlorophenyl]sulfonyl]-N-[2-[[4-(aminoiminomethyl)phenyl]carbonylamino]ethyl]-2(S)-pyrrolidine-carboxamide dihydrochloride], the inhibition at 1 µM was 92%. Cc1cc(C)c2cccc(OCc3c(Cl)ccc(S(=O)(=O)N4CCC[C@H]4C(=O)NCCNC(=O)COc4ccc(C(=N)N)cc4)c3Cl)c2n1 [Example 4, 1-[[3-[(2,4-Dimethylquinolin-8-yl)oxymethyl]-2,4-dichlorophenyl]sulfonyl]-N-[2-[[2-[4(aminoiminomethyl)phenoxy]-1-oxoethyl]amino]ethyl]-2(S)-pyrrolidinecarboxamide dihydrochloride] gave an inhibition at 1 µM of 95.5%. In the case of Cc1cc(C)c2cccc(OCc3c(Cl)ccc(S(=O)(=O)N4CCC[C@H]4C(=O)NCCCNC(=O)c4ccc(C(=N)N)cc4)c3Cl)c2n1 [Example 6, 1-[[3-[(2,4-Dimethylquinolin-8-yl)oxymethyl]-2,4-dichlorophenyl]sulfonyl]-N-[3-[[4-(aminoiminomethyl)phenyl]carbonylamino]propyl]-2(S)-pyrrolidine-carboxamide dihydrochloride], the inhibition at 1 µM is reported as 99%. In the case of Cc1cc(C)c2cccc(OCc3c(Cl)ccc(S(=O)(=O)N4CCC[C@H]4C(=O)NCCCNC(=O)Cc4ccc(C(=N)N)cc4)c3Cl)c2n1 [Example 8, 1-[[3-[(2,4-Dimethylquinolin-8-yl)oxymethyl]-2,4-dichlorophenyl]sulfonyl]-N-[-[[2-[4(aminoiminomethyl)phenyl]-1-oxoethyl]amino]propyl]-2(S)-pyrrolidinecarboxamide dihydrochloride], the inhibition at 1 µM is reported as 97.5%. Cc1cc(C)c2cccc(OCc3c(Cl)ccc(S(=O)(=O)N4CCC[C@H]4C(=O)NCCCNC(=O)COc4ccc(C(=N)N)cc4)c3Cl)c2n1 [Example 10, 1-[[3-[(2,4-Dimethylquinolin-8-yl)oxymethyl]-2,4-dichlorophenyl]sulfonyl]-N-[3-[[2-[4-(aminoiminomethyl)phenoxy]-1-oxoethyl]amino]propyl]-2(S)-pyrrolidinecarboxamide dihydrochloride] gave an inhibition at 1 µM of 98.8%. Work on CCN(CCCNC(=O)[C@@H]1CCCN1S(=O)(=O)c1ccc(Cl)c(COc2cccc3c(C)cc(C)nc23)c1Cl)C(=O)c1ccc(C(=N)N)cc1 [Example 14, 1-[[3-[(2,4-Dimethylquinolin-8-yl)oxymethyl]-2,4-dichlorophenyl]sulfonyl]-N-3-[[ethyl]-[[4-(aminoiminomethyl)phenyl]carbonyl]amino]propyl]-2(S)-pyrrolidine carboxamide dihydrochloride] yielded an inhibition at 1 µM of 97%. Molecule Cc1cc(C)c2cccc(OCc3c(Cl)ccc(S(=O)(=O)N4CCC[C@H]4C(=O)NCCCN(C)C(=O)c4ccc(C(=N)N)cc4)c3Cl)c2n1 [Example 16, 1-[[3-[(2,4-Dimethylquinolin-8-yl)oxymethyl]-2,4-dichlorophenyl]sulfonyl]-N-[3-[[methyl]-[[4(aminoiminomethyl)phenyl]carbonyl]amino]propyl]-2(S)-pyrrolidinecarboxamide dihydrochloride] has an inhibition at 1 µM of 100%. In the case of Cc1cc(C)c2cccc(OCc3c(Cl)ccc(S(=O)(=O)N4CCC[C@H]4C(=O)NCCCCNC(=O)c4ccc(C(=N)N)cc4)c3Cl)c2n1 [Example 19, 1-[[3-[(2,4-Dimethylquinolin-8-yloxymethyl]-2,4-dichlorophenyl]sulfonyl]-N-[4-[[4-(aminoiminomethyl)phenyl]carbonylamino]butyl]-2(S)-pyrrolidinecarboxamidedihydrochloride], the inhibition at 1 µM is reported as 98%. In the case of Cc1cc(C)c2cccc(OCc3c(Cl)ccc(S(=O)(=O)N4CCC[C@H]4C(=O)NCCCCCNC(=O)c4ccc(C(=N)N)cc4)c3Cl)c2n1 [Example 21, 1-[[3-[(2,4-Dimethylquinolin-8-yl)oxymethyl]-2,4-dichlorophenyl]sulfonyl]-N-[5-[[4-(aminoiminomethyl)phenyl]carbonylamino]pentyl]-2(S)-pyrrolidinecarboxamide dihydrochloride], the inhibition at 1 µM is reported as 100%.
